# Laboratory results from US12116362B2, “Monocyclic compounds useful as GPR120 modulators” (Valo Health, Inc., priority 2016, dated 2024).
# Biological target: T1, human GPR120 (Homo sapiens, UniProt Q5NUL3)
# T1 construct: host or cells: CHO-K1
# Assay: GPR120 β-Arrestin Recruitment Assay (PathHunter, CHO-K1 cells)
# Format: cell-based
# Details: CHO-K1; @ 10 uM; read-out: percent activation at a single concentration (printed in the β-Arr pEC50 column)
# From the text: This in vitro assay tests compounds' ability to activate intracellular signaling via 3-Arrestin recruitment to heterologously expressed human GPR120. This functional cellular assay utilizes enzyme fragment complementation with β-galactosidlase (β-gal) as a functional reporter (DiscoveRx PathlHunter® β-Arrestin assay platform). The human (GPR120 receptor (GenBank accession Number NM_181745) was fused in frame with the small enzyme fragment ProLink™ and co-expressed in CHO-K1 cells with a fusion protein of β-Arrestin 2 and the larger, N-terminal deletion mutant of β-gal. Activation by a GPR120 agonist stimulates binding of β-arrestin to the ProLink-tagged GPCR and forces complementation of the two enzyme fragments, resulting in the formation of an active β-gal enzyme. This interaction leads to an increase in enzyme activity that can be measured using chemiluminescent PathHunter® Detection Reagents.
# One day prior to the assay, cells were seeded in a total volume of 20 μl of growth medium into white walled 384-well microplates and incubated at 37° C./5% CO2 overnight. On the day of the assay, growth medium was removed and 20 μl assay buffer (HBSS+10 mM HEPES+0.1% heat-inactivated BSA) were added to each well.
# Test compounds were dissolved in 100% DMSO to a concentration of 10 mM to provide stock solutions. Serial dilutions were performed from stock solutions into assay buffer to obtain intermediate concentrations of 5-fold higher than the concentrations to be tested. 5 μl of the 5× compound solutions were added to the cells and the assay plates were incubated at 37° C. for 90 minutes. The final concentration of compounds tested in the assay ranged from 1.5 nM to 100 μM. Following incubation, 12.5 μl of PathHunter® detection reagent were added to each well, and plates were incubated at room temperature for 60 minutes. Chemiluminescence was read using an EnVision plate reader (PerkinElmer), raw data were expressed as relative light units (RLU).
# To determine agonist potencies (EC50 values), non-linear least-squares curve fits of the raw data (RLU) were performed in the GraphPad Prism software package, using the 4-parameter model with variable Hill Slope:
# Reported below in Table 1 are pEC50 values (pEC50=−log(EC50) from curve fit) for compounds of Formula I in this assay, β-Arr pEC50 Alternatively, percent activation at a single concentration is reported.
# T1 sequence (Q5NUL3 1-377 isoform Q5NUL3-1): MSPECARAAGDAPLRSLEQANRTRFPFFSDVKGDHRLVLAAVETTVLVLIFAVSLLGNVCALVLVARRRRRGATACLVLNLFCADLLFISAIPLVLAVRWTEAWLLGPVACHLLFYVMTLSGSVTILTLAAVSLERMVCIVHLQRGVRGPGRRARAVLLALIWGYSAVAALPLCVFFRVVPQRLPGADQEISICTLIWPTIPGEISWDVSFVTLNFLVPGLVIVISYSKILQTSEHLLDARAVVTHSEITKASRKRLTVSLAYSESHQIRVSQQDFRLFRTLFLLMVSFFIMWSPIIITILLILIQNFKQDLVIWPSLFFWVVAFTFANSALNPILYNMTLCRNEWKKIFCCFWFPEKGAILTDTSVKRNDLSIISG
# T1 sequence (P32121 whole entry partner): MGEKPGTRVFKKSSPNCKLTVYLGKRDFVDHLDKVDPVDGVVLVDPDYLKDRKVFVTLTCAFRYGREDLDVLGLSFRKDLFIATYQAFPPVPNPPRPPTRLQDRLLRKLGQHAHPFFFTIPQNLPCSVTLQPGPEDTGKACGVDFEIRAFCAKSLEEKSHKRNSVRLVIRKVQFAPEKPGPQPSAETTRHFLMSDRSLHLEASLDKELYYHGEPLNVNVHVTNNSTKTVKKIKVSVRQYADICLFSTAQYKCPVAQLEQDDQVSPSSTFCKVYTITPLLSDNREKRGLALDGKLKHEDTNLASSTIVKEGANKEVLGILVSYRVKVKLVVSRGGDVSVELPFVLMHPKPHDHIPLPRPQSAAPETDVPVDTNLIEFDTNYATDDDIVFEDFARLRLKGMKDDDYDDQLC
row,activation at 10 µM [%],Structure (SMILES)
1,3,O=S1(=O)c2ccccc2CN1c1ccnc(Oc2ccncc2)n1 [Compound 15]
2,1,O=S1(=O)c2ccccc2CN1c1ccnc(OCc2cccnc2)n1 [Compound 71]
3,9,O=S1(=O)c2ccccc2CN1c1ccnc(Oc2ccnc3ccccc23)n1 [Compound 27]
4,9,c1cncc(Oc2nccc(N3Cc4ccccc4C3)n2)c1 [Compound 13]
5,16,O=S1(=O)c2ccccc2CN1c1ccnc(Oc2cncnc2)n1 [Compound 25]
6,17,O=S1(=O)c2ccccc2CN1c1ccnc(-n2ccc3ccncc32)n1 [Compound 30]
7,11,O=S1(=O)c2ccccc2CN1c1ccnc(-n2cnc3ccccc32)n1 [Compound 31]
8,4,Cc1ncccc1Oc1nccc(N2Cc3ccccc3S2(=O)=O)n1 [Compound 17]
9,1,CC(=O)Nc1cccc(Oc2nccc(N3Cc4ccccc4S3(=O)=O)n2)c1 [Compound 24]

row,Structure (SMILES),activation at 10 µM [%]
1,CC1(C)c2ccccc2CN1c1ccnc(Oc2cccnc2)n1 [Compound 2],18

# Same assay, conditions: pEC50=−log(EC50) from curve fit; CHO-K1 cells, 90 min incubation
row,β-Arr pEC50,Structure (SMILES)
1,<4.5,Cc1nc(Oc2ccc(Cl)cc2)nc(N2Cc3ccccc3S2(=O)=O)n1 [Compound 143]

# Same assay, conditions: pEC50=−log(EC50) from curve fit; CHO-K1 cells, 90 min incubation; read-out: β-Arr pEC50 (converted)
row,EC50 [µM],Structure (SMILES)
1,> 10,N#Cc1ccc(Oc2nccc(N3Cc4ccccc4S3(=O)=O)n2)cc1 [Compound 40]
2,> 31.6,COc1ccc2c(c1)CN(c1ccnc(Oc3cccnc3)n1)C2=O [Compound 12]
3,0.398,COc1cc(N2Cc3ccccc3S2(=O)=O)nc(Oc2ccc(Cl)cc2)n1 [Compound 95]
4,> 10,N#Cc1ccc(Oc2nccc(N3Cc4ccccc4S3(=O)=O)n2)cn1 [Compound 55]
5,> 10,COc1ccc2c(c1Cl)S(=O)(=O)N(c1ccnc(Oc3cccnc3)n1)C2 [Compound 5]
6,> 31.6,O=S1(=O)c2ccccc2CN1c1cccc(Oc2ccccc2Cl)n1 [Compound 124]
7,12.6,O=C1c2ccccc2CN1c1ccnc(Oc2cccnc2)n1 [Compound 28]
8,15.8,O=S1(=O)c2ccccc2CN1c1ccnc(OCc2ccccc2)n1 [Compound 70]
9,> 31.6,CC(=O)N1CCC(Oc2nccc(N3Cc4ccccc4S3(=O)=O)n2)C1 (stereo not shown) [Compound 112]
10,> 10,CC(=O)N1CCCC(Oc2nccc(N3Cc4ccccc4S3(=O)=O)n2)C1 (stereo not shown) [Compound 66]
11,> 10,Cc1cc(C)c(Oc2nccc(N3Cc4ccccc4S3(=O)=O)n2)cn1 [Compound 53]
12,12.6,COc1ccc2c(c1)S(=O)(=O)N(c1nccc(Oc3cccnc3)n1)C2 [Compound 90]
13,> 31.6,O=C1c2ncccc2CN1c1ccnc(Oc2cccnc2)n1 [Compound 10]
14,2.51,CNC(=O)c1cc(Oc2ccc(Cl)cc2)nc(N2Cc3ccccc3S2(=O)=O)c1 [Compound 137]
15,> 10,Cc1ccc(Oc2nccc(N3Cc4ccccc4S3(=O)=O)n2)cn1 [Compound 18]
16,0.631,Cc1cc(Oc2cccnc2)nc(N2Cc3ccccc3S2(=O)=O)c1 [Compound 136]
17,> 10,CN(C)C(=O)c1cc(Oc2ccc(Cl)cc2)nc(N2Cc3ccccc3S2(=O)=O)c1 [Compound 139]
18,3.16,CC(=O)Nc1cc(Oc2ccc(Cl)cc2)nc(N2Cc3ccccc3S2(=O)=O)c1 [Compound 138]
19,> 31.6,COc1ccc(-c2cc(N3Cc4ccccc4S3(=O)=O)nc(Oc3cccnc3)n2)cc1 [Compound 85]
20,> 31.6,CS(=O)(=O)N1CC(Oc2nccc(N3Cc4ccccc4S3(=O)=O)n2)C1 [Compound 109]
21,3.16,Cc1cc(OC2CC(F)(F)C2)nc(N2Cc3ccccc3S2(=O)=O)n1 [Compound 92]
22,2.51,Cc1cc(Oc2ccccc2)nc(N2Cc3ccccc3S2(=O)=O)n1 [Compound 105]

row,EC50 [µM],Structure (SMILES)
1,> 10,O=S1(=O)c2ccccc2CN1c1ccnc(OC2CCOCC2)n1 [Compound 64]
2,> 31.6,CC(=O)N1CC(Oc2nccc(N3Cc4ccccc4S3(=O)=O)n2)C1 [Compound 110]
3,12.6,O=S1(=O)c2ccccc2CN1c1ccnc(Oc2cncc(Br)c2)n1 [Compound 52]
4,12.6,O=C1c2cccc(Br)c2CN1c1ccnc(Oc2cccnc2)n1 [Compound 113]
5,3.16,CN(C)c1cccc(Oc2nccc(N3Cc4ccccc4S3(=O)=O)n2)c1 [Compound 23]
6,> 10,CC(=O)N1CCC(Oc2nccc(N3Cc4ccccc4S3(=O)=O)n2)CC1 [Compound 111]
7,2,O=S1(=O)c2ccccc2CN1c1cc(C(F)(F)F)nc(Oc2ccc(F)cc2)n1 [Compound 103]
8,12.6,CC1c2ccccc2S(=O)(=O)N1c1ccnc(Oc2cccnc2)n1 (stereo not shown) [Compound 8]
9,> 31.6,O=S1(=O)c2cccc(Cl)c2CN1c1ccnc(Oc2cccnc2)n1 [Compound 3]
10,> 10,O=S1(=O)c2ccccc2CN1c1ccnc(OCc2ccncc2)n1 [Compound 73]
11,3.98,Cc1cc(N2Cc3ccccc3S2(=O)=O)nc(OC2CC(F)(F)C2)n1 [Compound 91]
12,15.8,O=S1(=O)c2ccccc2CN1c1ccnc(Oc2cc(Cl)cc(Cl)c2)n1 [Compound 38]
13,6.31,N#Cc1cc(N2Cc3ccccc3S2(=O)=O)nc(Oc2cccnc2)n1 [Compound 81]
14,> 31.6,O=S1(=O)c2ccccc2CN1c1cccc(OC2CCC2)n1 [Compound 126]
15,6.31,O=S1(=O)c2ccccc2CN1c1cc(C(F)(F)F)cc(OC2CC(F)(F)C2)n1 [Compound 141]
16,15.8,O=S1(=O)c2ccccc2CN1c1ncnc(Oc2cccnc2)n1 [Compound 146]
17,6.31,O=S1(=O)c2ccccc2CN1c1ccnc(Oc2ccc(C(F)(F)F)cc2)n1 [Compound 47]
18,2,Cc1nc(Oc2ccc(Cl)cc2)nc(N2Cc3ccccc3S2(=O)=O)n1 [Compound 144]
19,> 10,CC1(C)c2ccccc2S(=O)(=O)N1c1ccnc(Oc2cccnc2)n1 [Compound 6]
20,> 31.6,O=C(COc1nccc(N2Cc3ccccc3S2(=O)=O)n1)Nc1ccccc1 [Compound 76]
21,> 10,Cc1cc(Oc2cccnc2)nc(N2Cc3cccnc3C2=O)c1 [Compound 135]
22,> 10,O=C1c2ccccc2CN1c1nccc(Oc2cccnc2)n1 [Compound 117]

row,EC50 [µM],Structure (SMILES)
1,> 31.6,COc1ccc2c(c1)CN(c1cccc(Oc3cccnc3)n1)S2(=O)=O [Compound 133]
2,12.6,O=S1(=O)c2ccccc2CN1c1ccnc(Oc2cnc3ccccc3c2)n1 [Compound 26]
3,> 31.6,O=C1Cc2ccccc2N1c1nccc(Oc2cccnc2)n1 [Compound 120]
4,> 10,COc1cccc(Oc2nccc(N3Cc4ccccc4S3(=O)=O)n2)c1 [Compound 39]
5,> 31.6,O=S1(=O)c2cc(Cl)ccc2CN1c1ccnc(Oc2cccnc2)n1 [Compound 4]
6,> 31.6,CN1CCC(Oc2nccc(N3Cc4ccccc4S3(=O)=O)n2)CC1 [Compound 74]
7,> 10,O=S1(=O)c2ccccc2CN1c1ccnc(Oc2ccc(Cl)nc2)n1 [Compound 54]
8,2.51,O=S1(=O)c2ccccc2CN1c1ccnc(Oc2ccc(OC(F)(F)F)cc2)n1 [Compound 49]
9,> 31.6,CN1CCN(c2cc(N3Cc4ccccc4S3(=O)=O)nc(Oc3cccnc3)n2)CC1 [Compound 108]
10,0.794,COc1cc(Oc2ccccc2)nc(N2Cc3ccccc3S2(=O)=O)n1 [Compound 102]
11,3.98,O=S1(=O)c2ccccc2CN1c1ccnc(OCC2CCC2)n1 [Compound 69]
12,> 31.6,O=C1c2ncccc2CN1c1cccc(Oc2cccnc2)n1 [Compound 127]
13,2.51,O=S1(=O)c2ccccc2CN1c1ccnc(OCC2CCCCC2)n1 [Compound 68]
14,1,O=S1(=O)c2ccccc2CN1c1cc(C(F)(F)F)cc(Oc2cccnc2)n1 [Compound 140]
15,1,O=S1(=O)c2ccccc2CN1c1ccnc(Oc2ccc(OC(F)(F)F)cc2Cl)n1 [Compound 57]
16,> 31.6,COc1ccc2c(c1)S(=O)(=O)N(c1cccc(Oc3cccnc3)n1)C2 [Compound 132]
17,> 10,O=S1(=O)c2ccccc2CN1c1ccnc(OC2CCOC2)n1 (stereo not shown) [Compound 65]
18,> 31.6,O=S1(=O)c2ccccc2CN1c1ccnc(Oc2ccc(Oc3ccccc3)cc2)n1 [Compound 43]
19,> 10,CNC(=O)c1cc(N2Cc3ccccc3S2(=O)=O)nc(Oc2cccnc2)n1 [Compound 88]
20,5.01,Cc1cc(Cl)cc(Oc2nccc(N3Cc4ccccc4S3(=O)=O)n2)c1 [Compound 46]
21,0.158,COc1cc(N2Cc3ccccc3S2(=O)=O)nc(Oc2ccccc2)n1 [Compound 100]
